Reference: patent US20210030022A1, “NOVEL USE OF SUBSTITUTED CHROMAN-6-OLS” (DSM IP ASSETS B.V., priority 2018, published 2021)

Key:
Solubility in fish oil = type: physicochemical
Experimental: The compounds of formulae (4), (6), (8) and (9) were evaluated primarily for their oxidative stability by the Oil Stability Index (OSI) measurements. Two different levels of these antioxidants (0.5 and 2 mg/g) were used in 5 g of natural fish oil (Product code: FG30TG) and used in the Oxidative Stability Instrument at 80° C. with the air flow rate of 40 psi. The solubility of different amounts and types of antioxidants used in OSI was checked before and after the application. […]

[1] = Oil Stability Index (OSI) in fish oil, Example 12; settings: for OSI / Protection Factor (%): FG30TG fish oil; for antioxidant effect (OSI) in fish oil compared with MNT: Example 12, same level of MNT
Experimental: The compounds of formulae (4), (6), (8) and (9) were evaluated primarily for their oxidative stability by the Oil Stability Index (OSI) measurements. Two different levels of these antioxidants (0.5 and 2 mg/g) were used in 5 g of natural fish oil (Product code: FG30TG) and used in the Oxidative Stability Instrument at 80° C. with the air flow rate of 40 psi. The solubility of different amounts and types of antioxidants used in OSI was checked before and after the application.
The compounds of formulae (6) and (9) (see Table 14 below), compound of formula (4) (see Table 15 below) and compound of formula (8) (see Table 16 below) were used at different times in the Oxidative Stability instruments under similar operational conditions used for fish oil evaluations. MNT and the oil without any antioxidants (“Blank”) were always used to compare. Also, the synergistic effect of only oil soluble compounds with ascorbyl palmitate was determined using the OSI values. The polymers generated at the end of the experiment were determined by LC (LC=liquid chromatography).
The Protection Factors (PF) for each compound in oil were calculated in percentage as: […]

[2] = Polymers generated at end of OSI experiment in fish oil, by LC; settings: FG30TG oil, end of stabilization experiment
Experimental: The compounds of formulae (6) and (9) (see Table 14 below), compound of formula (4) (see Table 15 below) and compound of formula (8) (see Table 16 below) were used at different times in the Oxidative Stability instruments under similar operational conditions used for fish oil evaluations. MNT and the oil without any antioxidants (“Blank”) were always used to compare. Also, the synergistic effect of only oil soluble compounds with ascorbyl palmitate was determined using the OSI values. The polymers generated at the end of the experiment were determined by LC (LC=liquid chromatography). Polymers generated at the end of the stabilization experiment of fish oil with compounds of formulae 6 and 9 and AP are shown in Table 24. A combination of complex, polymeric compounds generated at the end of the oxidation cascade of unsaturated fatty acids indicate the levels of overall oxidation of the matrix. The generation of such polymers in fish oil containing these novel antioxidant compounds could be reduced considerably when AP was added as a synergistic compound (Table 24).

[3] = Storage stability in fish oil (PV, p-AV, CD), Example 12; settings: FG30TG, 2 mg/g
Experimental: Tables 25, 26 and 27 show the PV (peroxide value), p-AV (p-anisidine value) and CD (Conjugated dienoic acid %) of the fish oil samples stabilized with compounds of formulae (6), (8) and (9), respectively.
For the storage stability study oil soluble compounds were used in fish oil at 2 mg/g level only. […] There was no considerable variation in p-AV and CD (Tables 26-27) during the storage.

[4] = Oil Stability Index in crude algal oil, Example 12; settings: for prooxidant effect in algal oil: higher levels (2 mg/g)
Source text: To evaluate the efficacy of the compounds of formulae (4), (6), (8) and (9) in algal oils, only oil soluble compounds were used. […] Protection Factors of all these compounds, including MNT, in fish oil could be improved by the addition of AP (Tables 22-23) indicating the possibility of combining AP to all these novel compounds to improve the oxidative stability of matrices containing high amounts of unsaturated fatty acids such as fish oil.

[5] = Oxipres antioxidant efficacy value (EV) in fish meal; settings: Oxipres 70° C., 5 bar O2, equimolar to BHT; EV relative to BHT (EV=1)
Experimental: Oxidative stability was assessed using an Oxipres (Mikrolab Aarhus A/S, Hojbjerg, Denmark). The ML OXIPRES® is designed to monitor the oxidation of heterogeneous products. Consumption of oxygen results in a pressure drop which is measured by means of pressure transducers. The samples are heated to accelerate the process and shorten the analysis time (Mikrolab Aarhus 2012).
Sample weights were 50 g. They were loaded into the Oxipres vessels and placed inside the stainless-steel pressure vessel and sealed. The pressure vessels were purged with pure oxygen and filled to an initial oxygen pressure of 5 bar and maintained at 70° C. during measurement (D. Ying, L. Edin, L. Cheng, L. Sanguansri, M. A. Augustin, LWT—Food Science and Technology 2015, 62, 1105-1111: “Enhanced oxidative stability of extruded product containing polyunsaturated oils.”).
The oxygen pressure was recorded as function of time. After sample load and temperature rise the pressure in the device is increasing within 10 hours up to the starting pressure. Thereafter it is decreasing. Consequently, the starting pressure is considered as being the pressure after 10 hours. The analysis ends after 130 hours at 70° C. The oxygen consumption ‘O2’ of the tested sample is calculated as follows: […]
A factor of protection called ‘EV’ (Efficacy Value) was developed to quantify with a relative number (relative to BHT) the antioxidant effect of the tested candidates. EV was calculated as follows:
EV, being relative to BHT (3,5-di-tert-butyl-4-hydroxy-toluene) (EV=1), makes it possible to compare the antioxidant compounds in a defined feed application.
Each of the compounds of formulae (1) to (6) were mixed into each matrix 1, 2 or 3 (pet food, poultry meal, fish meal) in an equimolar ratio compared to BHT. Batches of 200 g feed were produced in order to handle a minimum of 30 mg of antioxidant. First, a 1% pre-dilution of the antioxidant with the feed material was made. Then this pre-dilution was added to the final batch, mixed, sieved (1.25 mm sieve) and mixed using a turbula mixer. Thereafter 55 g of the final batch were packed into polyethylene bags, and stored at 4° C. until start of the Oxipres assay. Spare sample were stored at 4° C. Compound of formula (3) was measured in all three matrices. Compound of formula (1) was measured in matrix 1 and 2. Compound of formula (2) was measured in matrix 2. Compounds of formulae (4), (5) and (6) were measured in matrix 3. An efficacy value 0.7 has been considered as acceptable, an efficacy value ≥ the efficacy value of alpha-tocopherol as good, and an efficacy value ≥ the efficacy value of BHT as very good.

[6] = Table 20, 2 mg/g + 0.5 mg/g of AP (ascorbyl palmitate)
[7] = Table 22, 2 mg/g + 0.5 mg/g of AP

Solubility in fish oil, 80° C. (Solubility in fish oil; 0.5 mg/g)	Solubility in fish oil, Room temp. (Solubility in fish oil; 0.5 mg/g)	Solubility in fish oil, 80° C. (Solubility in fish oil; 2.0 mg/g)	Solubility in fish oil, Room temp. (Solubility in fish oil; 2.0 mg/g)	SMILES	OSI ([1]; Table 14, 80° C., 0.5 mg/g) [h]	OSI ([1]; Table 14, 80° C., 2 mg/g) [h]	Protection Factor (%) ([1]; Table 17, 0.5 mg/g)	Protection Factor (%) ([1]; Table 17, 2 mg/g)	OSI [1, 6] [h]	OSI ([1]; Table 20, 2 mg/g, without AP) [h]	Protection Factor (%) [1, 7] [%]	Protection Factor (%) ([1]; Table 22, 2 mg/g, without AP)	antioxidant effect (OSI) in fish oil compared with MNT [1]	Polymers (%) ([2]; 2 mg/g + 0.5 mg/g of AP)	Polymers (%) ([2]; 2 mg/g, without AP)	CD (conjugated dienoic acid in %) ([3]; 4 days) [%]	PV (peroxide value) ([3]; 4 days)	p-AV (p-anisidine value) ([3]; 4 days)	CD (conjugated dienoic acid in %) ([3]; 6 days) [%]	PV (peroxide value) ([3]; 6 days)	further results
Soluble	Soluble	Soluble	Soluble	Cc1c(C)c2c(c(C)c1O)CCC(C)(CCCC(C)C)O2 (centres unmarked) [Compound of formula (9)]	5.75	6.05	26.37	32.97	8.93	6.30	92.8	36.1	comparable to the antioxidative effect of MNT	31.06	40.34	0.7	2.9	10.5	0.7	7.3	p-AV (p-anisidine value) ([3]; 6 days): 9.9; CD (conjugated dienoic acid in %) ([3]; 8 days): 0.8%; PV (peroxide value) ([3]; 8 days): 8.8; p-AV (p-anisidine value) ([3]; 8 days): 10.3; CD (conjugated dienoic acid in %) ([3]; 11 days): 0.9%; PV (peroxide value) ([3]; 11 days): 11.2; p-AV (p-anisidine value) ([3]; 11 days): 10.5; CD (conjugated dienoic acid in %) ([3]; 13 days): 0.8%; PV (peroxide value) ([3]; 13 days): 15; p-AV (p-anisidine value) ([3]; 13 days): 10.5; CD (conjugated dienoic acid in %) ([3]; 15 days): 0.8%; PV (peroxide value) ([3]; 17 days): 19.2; p-AV (p-anisidine value) ([3]; 17 days): 11; CD (conjugated dienoic acid in %) ([3]; Initial): 0.7%; PV (peroxide value) ([3]; Initial): 0.9; p-AV (p-anisidine value) ([3]; Initial): 9.9; OSI values in algal oil compared with MNT [4]: clearly lower OSI values than those of MNT; prooxidant effect in algal oil [4]: possible prooxidant effect
Soluble	Soluble	Soluble	Soluble	Cc1c(C)c2c(c(C)c1O)CCC(C)(CO)O2 (centres unmarked) [Compound of formula (6), 2-Hydroxymethyl-2,5,7,8-Tetramethyl-6-Chromanol]	7.05	7.30	54.95	60.44	11.20	6.15	141.9	32.8	comparable to the effect of MNT	25.09	37.37	0.7	4.1	10.4	0.7	7	EV in Fish meal [5]: 1.03; p-AV (p-anisidine value) ([3]; 6 days): 9.7; CD (conjugated dienoic acid in %) ([3]; 8 days): 0.7%; PV (peroxide value) ([3]; 8 days): 7.9; p-AV (p-anisidine value) ([3]; 8 days): 10.2; CD (conjugated dienoic acid in %) ([3]; 11 days): 0.8%; PV (peroxide value) ([3]; 11 days): 10.2; p-AV (p-anisidine value) ([3]; 11 days): 10.4; CD (conjugated dienoic acid in %) ([3]; 13 days): 0.8%; PV (peroxide value) ([3]; 13 days): 14.9; p-AV (p-anisidine value) ([3]; 13 days): 10.3; CD (conjugated dienoic acid in %) ([3]; 15 days): 0.8%; PV (peroxide value) ([3]; 17 days): 18.6; p-AV (p-anisidine value) ([3]; 17 days): 10.7; CD (conjugated dienoic acid in %) ([3]; Initial): 0.7%; PV (peroxide value) ([3]; Initial): 0.9; p-AV (p-anisidine value) ([3]; Initial): 9.9; OSI values in algal oil compared with MNT [4]: clearly lower OSI values than those of MNT; prooxidant effect in algal oil [4]: possible prooxidant effect
